Literature values as cited in patent publication US20070225258A1, “COMPOSITIONS COMPRISING BISPHOSPHONATE AND AN ANTIFOLATE” (PROPRIUS PHARMACEUTICALS, INC., priority 2006, published 2007).

System: patients with RA

CN(Cc1cnc2nc(N)nc(N)c2n1)c1ccc(C(=O)N[C@@H](CCC(=O)O)C(=O)O)cc1 [methotrexate]
Proportion of RA patients in whom treatment is effective: effective in only one in three patients
